According to patent US20230131899A1, “INHIBITORS OF MICROBIALLY INDUCED AMYLOID” (Axial Therapeutics, Inc., priority 2020, published 2023):
Where two headings read alike, the source gives them in different places.

Experiments:
fecal water content = experiment: Fecal water content in MC4100 mice treated with compound vs control chow (FIG. 6); format: in vivo, mouse; conditions: 12-14 weeks of age; vs MC4100-control chow group
[1] = tested on: CsgA gene expression (csgBAC promoter-GFP reporter) in E. coli UTI89; experiment: In vitro live cell fluorescent reporter assay of CsgA transcription (Reporter Assay); format: cell-based
Outline: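 Compounds at 0.14–100 μM (1% DMSO final) incubated 20 h at 27 °C in YESCA broth with UTI89 carrying a single-copy GFP reporter under the csgBAC intergenic promoter region, inoculum OD600 0.003. Fluorescence normalized to vehicle wells gave IC50 and 50%-of-vehicle concentration; OD600 reduction >10% flagged growth impact.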

[2] = tested on: time to descend from a pole; experiment: Pole descent test in MC4100 mice treated with compound vs control chow (FIG. 7); format: in vivo, mouse; conditions: 18-20 weeks of age; vs MC-4100 control chow group
number of fecal pellets = experiment: Fecal pellet output in MC4100 mice treated with compound vs control chow (FIG. 5); format: in vivo, mouse; conditions: 12-14 weeks of age; compared to MC4100-control chow group; statistical difference was not reached
[3] = tested on: csgA expression in E. coli MC4100; experiment: csgA expression relative to housekeeping genes recA and cysG in E. coli MC4100 monocolonized mice (FIGS. 8A-D); format: in vivo
[4] = tested on: CsgA expression in E. coli MC4100; experiment: Monocolonized Mouse Model: csgA expression in fecal pellets by qRT-PCR; conditions: 30 mg/kg, day five of treatment, relative to mice treated with vehicle alone (FIGS. 4A-B)
[5] = Escherichia coli, read-out: Reporter Assay Abs IC50 (μM), median Abs IC50 in the CsgA reporter assay, N/A = maximum expression reduction is <50% of control
[6] = Escherichia coli, read-out: Reporter Assay Abs IC50, activity range, class symbol
[7] = Escherichia coli, read-out: Reporter Assay Abs IC50 (activity range), median Abs IC50 in the CsgA reporter assay, class symbol

Structure (SMILES)	IC50 [1, 5]	IC50 [1, 6]	IC50 [1, 7]	also measured
O=C(O)[C@@H]1CN(Cc2ccccc2)c2c(-c3cccc(C(F)(F)F)c3)c(Cc3cccc4ccccc34)c(Cl)c(=O)n21 (single isomer, unassigned) [Compound 004a]	0.2 µM	< 1.3 µM	–	fecal water content (fecal water content): restored a constipation phenotype; time to descend from a pole into a home cage [2]: trend towards improvement of the phenotype; number of fecal pellets a mouse produced at 15 min interval (number of fecal pellets): overall increase in number of fecal pellets; csgA expression relative to housekeeping genes recA and cysG ([3]; 12-14 weeks of age): reduction of csgA expression; csgA expression relative to housekeeping genes recA and cysG ([3]; 14-16 weeks of age): repeated and observed again
CN1CC(C(=O)O)n2c(c(-c3cccc(C(F)(F)F)c3)c(Cc3cccc4ccccc34)c(NC3CCCC3)c2=O)S1(=O)=O (stereo not drawn) [Compound 070, 7-(cyclopentylamino)-2-methyl-8-(naphthalen-1-ylmethyl)-6-oxo-9-(3-(trifluoromethyl)phenyl)-3,4-dihydro-2H,6H-pyrido[1,2-e][1,2,5]thiadiazine-4-carboxylic acid 1,1-dioxide]	2.3 µM	–	1.3 to 4.5 µM	csgA expression in E. coli MC4100 monocolonized mice [4]: reduction of csgA expression
Cc1c(Cc2cccc3ccccc23)c(-c2cccc(C(F)(F)F)c2)c2n(c1=O)C(C(=O)O)CN(C)S2(=O)=O (stereo not drawn) [Compound 068, 2,7-dimethyl-8-(naphthalen-1-ylmethyl)-6-oxo-9-(3-(trifluoromethyl)phenyl)-3,4-dihydro-2H,6H-pyrido[1,2-e][1,2,5]thiadiazine-4-carboxylic acid 1,1-dioxide]	11.1 µM	–	> 10 µM	–
Cn1c(=O)c2c(ncn2CCCCN2CC(C(=O)O)n3c(c(-c4cccc(C(F)(F)F)c4)c(Cc4cccc5ccccc45)cc3=O)S2(=O)=O)n(C)c1=O (stereo not drawn) [Compound 033, 2-(4-(1,3-dimethyl-2,6-dioxo-1,2,3,6-tetrahydro-7H-purin-7-yl)butyl)-8-(naphthalen-1-ylmethyl)-6-oxo-9-(3-(trifluoromethyl)phenyl)-3,4-dihydro-2H,6H-pyrido[1,2-e][1,2,5]thiadiazine-4-carboxylic acid 1,1-dioxide]	3.3 µM	–	1.3 to 4.5 µM	–
O=C(O)C1CN(Cc2ccccc2)c2c(-c3cccc(C(F)(F)F)c3)c(Cc3cccc4ccccc34)c(Br)c(=O)n21 (stereo not drawn) [Compound 003, 1-benzyl-6-bromo-7-(naphthalen-1-ylmethyl)-5-oxo-8-(3-(trifluoromethyl)phenyl)-1,2,3,5-tetrahydroimidazo[1,2-a]pyridine-3-carboxylic acid]	0.8 µM	< 1.3 µM	–	–
O=C(O)C1CSc2c(-c3cccc(C(F)(F)F)c3)c(C(F)(F)c3cccc4ccccc34)cc(=O)n21 (stereo not drawn) [Compound 073, 7-(difluoro(naphthalen-1-yl)methyl)-5-oxo-8-(3-(trifluoromethyl)phenyl)-2,3-dihydro-5H-thiazolo[3,2-a]pyridine-3-carboxylic acid]	6 µM	–	4.6 to 10 µM	–
Nc1c(Cc2cccc3ccccc23)c(-c2cccc(C(F)(F)F)c2)c2n(c1=O)C(C(=O)O)CS2 (single isomer, unassigned) [Compound 020b, 6-amino-7-(naphthalen-1-ylmethyl)-5-oxo-8-(3-(trifluoromethyl)phenyl)-2,3-dihydro-5H-thiazolo[3,2-a]pyridine-3-carboxylic acid]	–	–	–	IC50 ([1]; read-out: Reporter Assay Abs IC50 (activity range), median Abs IC50 in the CsgA reporter assay, class symbol): 4.6 to 10 µM; IC50 ([1]; read-out: Reporter Assay Abs IC50, median Abs IC50 in the CsgA reporter assay, N/A = maximum expression reduction is <50% of control): 5.7 µM
CN1CC(C(=O)O)n2c(c(-c3cccc(C(F)(F)F)c3)c(Cc3cccc4ccccc34)c(C(=O)NC(C)(C)C)c2=O)S1(=O)=O (stereo not drawn) [Compound 158, 7-(tert-butylcarbamoyl)-2-methyl-8-(naphthalen-1-ylmethyl)-6-oxo-9-(3-(trifluoromethyl)phenyl)-3,4-dihydro-2H,6H-pyrido[1,2-e][1,2,5]thiadiazine-4-carboxylic acid 1,1-dioxide]	1.7 µM	1.3 to 4.5 µM	–	–
CCCN1CC(C(=O)O)n2c(c(-c3cccc(C(F)(F)F)c3)c(Cc3cccc4ccccc34)c(OCC)c2=O)S1(=O)=O (stereo not drawn) [Compound 143, 7-ethoxy-8-(naphthalen-1-ylmethyl)-6-oxo-2-propyl-9-(3-(trifluoromethyl)phenyl)-3,4-dihydro-2H,6H-pyrido[1,2-e][1,2,5]thiadiazine-4-carboxylic acid 1,1-dioxide]	5.2 µM	4.6 to 10 µM	–	–
CCc1c(Cc2cccc3ccccc23)c(-c2cccc(C(F)(F)F)c2)c2n(c1=O)C(C(=O)O)CN2Cc1ccccc1 (stereo not drawn) [Compound 140, 1-benzyl-6-ethyl-7-(naphthalen-1-ylmethyl)-5-oxo-8-(3-(trifluoromethyl)phenyl)-1,2,3,5-tetrahydroimidazo[1,2-a]pyridine-3-carboxylic acid]	1 µM	< 1.3 µM	–	–
CC(C)N1CC(C(=O)O)n2c1c(-c1cccc(C(F)(F)F)c1)c(Cc1cccc3ccccc13)c(Cl)c2=O (stereo not drawn) [Compound 179, 6-chloro-1-isopropyl-7-(naphthalen-1-ylmethyl)-5-oxo-8-(3-(trifluoromethyl)phenyl)-1,2,3,5-tetrahydroimidazo[1,2-a]pyridine-3-carboxylic acid]	1.4 µM	1.3 to 4.5 µM	–	–
CCCN1CC(C(=O)O)n2c(c(-c3cccc(C(F)(F)F)c3)c(Cc3cccc4ccccc34)c(C(N)=O)c2=O)S1(=O)=O (stereo not drawn) [Compound 172, 7-carbamoyl-8-(naphthalen-1-ylmethyl)-6-oxo-2-propyl-9-(3-(trifluoromethyl)phenyl)-3,4-dihydro-2H,6H-pyrido[1,2-e][1,2,5]thiadiazine-4-carboxylic acid 1,1-dioxide]	4.2 µM	1.3 to 4.5 µM	–	–
O=C(O)C1CN(CCCCCO)c2c(-c3cccc(C(F)(F)F)c3)c(Cc3cccc4ccccc34)c(Cl)c(=O)n21 (stereo not drawn) [Compound 199, 6-chloro-1-(5-hydroxypentyl)-7-(naphthalen-1-ylmethyl)-5-oxo-8-(3-(trifluoromethyl)phenyl)-1,2,3,5-tetrahydroimidazo[1,2-a]pyridine-3-carboxylic acid]	6.9 µM	4.6 to 10 µM	–	–
Cn1c(=O)c2c(nc(CCCCN3CC(C(=O)O)n4c(c(-c5cccc(C(F)(F)F)c5)c(Cc5cccc6ccccc56)cc4=O)S3(=O)=O)n2C)n(C)c1=O (stereo not drawn) [Compound 044, 8-(naphthalen-1-ylmethyl)-6-oxo-9-(3-(trifluoromethyl)phenyl)-2-(4-(1,3,7-trimethyl-2,6-dioxo-2,3,6,7-tetrahydro-1H-purin-8-yl)butyl)-3,4-dihydro-2H,6H-pyrido[1,2-e][1,2,5]thiadiazine-4-carboxylic acid 1,1-dioxide]	1.5 µM	–	1.3 to 4.5 µM	–
CC1(C)Sc2c(-c3cccc(C(F)(F)F)c3)c(Cc3cccc4ccccc34)nc(=O)n2C1C(=O)O (stereo not drawn) [Compound 059, 2,2-dimethyl-7-(naphthalen-1-ylmethyl)-5-oxo-8-(3-(trifluoromethyl)phenyl)-2,3-dihydro-5H-thiazolo[3,2-c]pyrimidine-3-carboxylic acid]	21.1 µM	–	> 10 µM	–
O=C(O)C1CN(Cc2ccc(CO)cc2)c2c(-c3cccc(C(F)(F)F)c3)c(Cc3cccc4ccccc34)c(Cl)c(=O)n21 (stereo not drawn) [Compound 170, 6-chloro-1-(4-(hydroxymethyl)benzyl)-7-(naphthalen-1-ylmethyl)-5-oxo-8-(3-(trifluoromethyl)phenyl)-1,2,3,5-tetrahydroimidazo[1,2-a]pyridine-3-carboxylic acid]	2.2 µM	1.3 to 4.5 µM	–	–
O=C(O)C1CN(Cc2ccccc2)c2c(-c3cccc(Br)c3)c(Cc3cccc4ccccc34)c(Cl)c(=O)n21 (stereo not drawn) [Compound 198, 1-benzyl-8-(3-bromophenyl)-6-chloro-7-(naphthalen-1-ylmethyl)-5-oxo-1,2,3,5-tetrahydroimidazo[1,2-a]pyridine-3-carboxylic acid]	5 µM	4.6 to 10 µM	–	–
O=C(O)C1n2c(c(-c3cccc(C(F)(F)F)c3)c(Cc3cccc4ccccc34)nc2=O)SC12CCCC2 (stereo not drawn) [Compound 053, 7′-(naphthalen-1-ylmethyl)-5′-oxo-8′-(3-(trifluoromethyl)phenyl)-3′H,5′H-spiro[cyclopentane-1,2′-thiazolo[3,2-c]pyrimidine]-3′-carboxylic acid]	16.3 µM	–	> 10 µM	–
